Measured values taken from patent publication US20100267561A1, “HERBICIDAL PYRIDAZINONE DERIVATIVES” (priority 2007, published 2010).

What was measured:
Test in all cases: Test B pre-/postemergence plant response
Assay type in all cases: in vivo
[1] = test system: blackgrass (Alopecurus myosuroides); details: for Blackgrass plant response rating: 8 g ai/ha
Summary of the method: (§1)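 Preemergence and postemergence (plants 2-18 cm, 1- to 4-leaf stage) applications used test chemicals in a non-phytotoxic solvent with surfactant. Plants were held in a greenhouse 13 to 15 days, then rated visually against controls on a 0-100 scale (0 no effect, 100 complete control).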

[2] = test system: woolly cupgrass (Eriochloa villosa)
Summary of the method: as §1

[3] = test system: eastern black (E.B.) nightshade (Solanum ptycanthum); details: Preemergence
Summary of the method: as §1

[4] = test system: catchweed bedstraw (Galium aparine); details: Preemergence, scale 0 to 100
Summary of the method: as §1

[5] = test system: yellow nutsedge (Cyperus esculentus); details: for Nutsedge, Yellow plant response rating: 8 g ai/ha
Summary of the method: as §1

[6] = test system: velvetleaf (Abutilon theophrasti); details: for Velvetleaf plant response rating: 8 g ai/ha
Summary of the method: as §1

wild oat (Avena fatua) = details: for Oat, Wild plant response rating: 8 g ai/ha
Summary of the method: as §1

[7] = test system: downy bromegrass (Bromus tectorum); details: for Bromegrass, Downy plant response rating: 8 g ai/ha
Summary of the method: as §1

[8] = test system: johnsongrass (Sorghum halepense); details: for Johnsongrass plant response rating: 8 g ai/ha
Summary of the method: as §1

[9] = test system: giant foxtail (Setaria faberii); details: for Foxtail, Giant plant response rating: 8 g ai/ha
Summary of the method: as §1

[10] = test system: morningglory (Ipomoea coccinea); details: for Morningglory plant response rating: 8 g ai/ha
Summary of the method: as §1

[11] = test system: green foxtail (Setaria viridis); details: for Foxtail, Green plant response rating: 8 g ai/ha
Summary of the method: as §1

[12] = test system: pigweed (Amaranthus retroflexus); details: for Pigweed plant response rating: 8 g ai/ha
Summary of the method: as §1

[13] = test system: Italian ryegrass (Lolium multiflorum); details: for Ryegrass, Italian plant response rating: 8 g ai/ha
Summary of the method: as §1

[14] = Postemergence, 16 g ai/ha, scale 0 to 100
[15] = Postemergence, 31 g ai/ha, scale 0 to 100, 0 no effect, 100 complete control
[16] = Postemergence, 62 g ai/ha, scale 0 to 100, 0 no effect, 100 complete control
[17] = Preemergence, 16 g ai/ha, scale 0 to 100 (0 no effect, 100 complete control)
[18] = Preemergence, 31 g ai/ha, 0 to 100 scale, 0 no effect, 100 complete control
[19] = Preemergence, 62 g ai/ha, scale 0 to 100
[20] = Preemergence, 31 g ai/ha, scale 0 to 100 (0 no effect, 100 complete control)

SMILES: Cc1cc(-c2ccc(C(F)(F)F)c(F)c2)nn1-c1c(O)c(C(F)(F)F)nn(C)c1=O [Compound 44]
- Blackgrass plant response rating ([1]; postemergence, 0-100 scale): 85
- Plant response rating, Blackgrass [1, 14]: 90
- Plant response rating, Blackgrass [1, 15]: 98
- Plant response rating, Blackgrass [1, 16]: 98
- Plant response rating, Blackgrass [1, 17]: 100
- Plant response rating, Blackgrass [1, 18]: 100
- Plant response rating, Blackgrass [1, 19]: 100
- Blackgrass plant response rating ([1]; Preemergence, scale 0 to 100): 90
- Cupgrass, Woolly plant response rating ([2]; 8 g ai/ha, postemergence, 0-100 scale): 98
- Plant response rating, Cupgrass, Woolly [2, 14]: 98
- Plant response rating, Cupgrass, Woolly [2, 15]: 100
- Plant response rating, Cupgrass, Woolly [2, 16]: 100
- Plant response rating, Cupgrass, Woolly [2, 17]: 0
- Plant response rating, Cupgrass, Woolly [2, 18]: 0
- Plant response rating, Cupgrass, Woolly [2, 19]: 100
- Plant response rating, Nightshade, E. B. ([3]; 16 g ai/ha, scale 0 to 100 (0 no effect, 100 complete control)): 0
- Plant response rating, Nightshade, E. B. ([3]; 31 g ai/ha, scale 0 to 100 (0 no effect, 100 complete control)): 0
- Plant response rating, Nightshade, E. B. ([3]; 62 g ai/ha, scale 0 to 100): 55
- Nightshade, E. B. plant response rating ([3]; 8 g ai/ha, scale 0 to 100): 0
- Plant response rating, Galium ([4]; 62 g ai/ha): 0
- Galium plant response rating ([4]; 8 g ai/ha): 0
- Nutsedge, Yellow plant response rating ([5]; postemergence, 0-100 scale): 0
- Plant response rating, Nutsedge, Yellow [5, 14]: 0
- Plant response rating, Nutsedge, Yellow [5, 15]: 0
- Plant response rating, Nutsedge, Yellow [5, 16]: 0
- Plant response rating, Nutsedge, Yellow [5, 17]: 0
- Plant response rating, Nutsedge, Yellow [5, 20]: 0
- Plant response rating, Nutsedge, Yellow [5, 19]: 0
- Nutsedge, Yellow plant response rating ([5]; Preemergence, scale 0 to 100): 0
- Velvetleaf plant response rating ([6]; postemergence, 0-100 scale): 0
- Plant response rating, Velvetleaf [6, 14]: 0
- Plant response rating, Velvetleaf [6, 16]: 0
- Plant response rating, Velvetleaf [6, 17]: 0
- Plant response rating, Velvetleaf [6, 20]: 0
- Plant response rating, Velvetleaf ([6]; Preemergence, 62 g ai/ha, 0 to 100 scale, 0 no effect, 100 complete control): 0
- Velvetleaf plant response rating ([6]; Preemergence, scale 0 to 100): 0
- Oat, Wild plant response rating (wild oat (Avena fatua); postemergence, 0-100 scale): 90
- Plant response rating, Oat, Wild (wild oat (Avena fatua); [14]): 95
- Plant response rating, Oat, Wild (wild oat (Avena fatua); [15]): 100
- Plant response rating, Oat, Wild (wild oat (Avena fatua); [16]): 100
- Plant response rating, Oat, Wild (wild oat (Avena fatua); [17]): 80
- Plant response rating, Oat, Wild (wild oat (Avena fatua); [20]): 85
- Plant response rating, Oat, Wild (wild oat (Avena fatua); [19]): 90
- Oat, Wild plant response rating (wild oat (Avena fatua); Preemergence, scale 0 to 100): 25
- Bromegrass, Downy plant response rating ([7]; postemergence, 0-100 scale): 40
- Plant response rating, Bromegrass, Downy [7, 14]: 60
- Plant response rating, Bromegrass, Downy [7, 15]: 70
- Plant response rating, Bromegrass, Downy [7, 16]: 90
- Plant response rating, Bromegrass, Downy [7, 17]: 20
- Plant response rating, Bromegrass, Downy [7, 18]: 60
- Plant response rating, Bromegrass, Downy [7, 19]: 85
- Bromegrass, Downy plant response rating ([7]; Preemergence, scale 0 to 100): 0
- Johnsongrass plant response rating ([8]; postemergence, 0-100 scale): 55
- Plant response rating, Johnsongrass [8, 14]: 95
- Plant response rating, Johnsongrass [8, 15]: 98
- Plant response rating, Johnsongrass [8, 16]: 100
- Plant response rating, Johnsongrass [8, 17]: 0
- Plant response rating, Johnsongrass [8, 18]: 0
- Plant response rating, Johnsongrass [8, 19]: 95
- Johnsongrass plant response rating ([8]; Preemergence, scale 0 to 100): 0
- Foxtail, Giant plant response rating ([9]; postemergence, 0-100 scale): 95
- Plant response rating, Foxtail, Giant [9, 14]: 98
- Plant response rating, Foxtail, Giant [9, 15]: 100
- Plant response rating, Foxtail, Giant [9, 16]: 100
- Plant response rating, Foxtail, Giant [9, 17]: 0
- Plant response rating, Foxtail, Giant [9, 18]: 0
- Plant response rating, Foxtail, Giant [9, 19]: 0
- Foxtail, Giant plant response rating ([9]; Preemergence, scale 0 to 100): 0
- Morningglory plant response rating ([10]; postemergence, 0-100 scale): 0
- Plant response rating, Morningglory [10, 14]: 0
- Plant response rating, Morningglory [10, 15]: 0
- Plant response rating, Morningglory [10, 16]: 0
- Plant response rating, Morningglory [10, 17]: 0
- Plant response rating, Morningglory [10, 19]: 0
- Morningglory plant response rating ([10]; Preemergence, scale 0 to 100): 0
- Foxtail, Green plant response rating ([11]; postemergence, 0-100 scale): 75
- Plant response rating, Foxtail, Green [11, 14]: 95
- Plant response rating, Foxtail, Green [11, 15]: 95
- Plant response rating, Foxtail, Green [11, 16]: 100
- Plant response rating, Foxtail, Green [11, 17]: 98
- Plant response rating, Foxtail, Green [11, 18]: 100
- Plant response rating, Foxtail, Green [11, 19]: 100
- Foxtail, Green plant response rating ([11]; Preemergence, scale 0 to 100): 40
- Pigweed plant response rating ([12]; postemergence, 0-100 scale): 0
- Plant response rating, Pigweed [12, 14]: 0
- Plant response rating, Pigweed [12, 15]: 0
- Plant response rating, Pigweed [12, 16]: 0
- Plant response rating, Pigweed [12, 17]: 0
- Plant response rating, Pigweed [12, 20]: 0
- Plant response rating, Pigweed [12, 19]: 0
- Pigweed plant response rating ([12]; Preemergence, scale 0 to 100): 0
- Ryegrass, Italian plant response rating ([13]; postemergence, 0-100 scale): 90
- Plant response rating, Ryegrass, Italian [13, 14]: 95
- Plant response rating, Ryegrass, Italian [13, 15]: 100
- Plant response rating, Ryegrass, Italian [13, 16]: 100
- Plant response rating, Ryegrass, Italian [13, 17]: 90
- Plant response rating, Ryegrass, Italian [13, 20]: 90
- Plant response rating, Ryegrass, Italian [13, 19]: 100
- Ryegrass, Italian plant response rating ([13]; Preemergence, scale 0 to 100): 20
